The numbers were not newly measured in US20040167197A1, “Compositions, combinations, and methods for treating cardiovascular conditions and other associated conditions” (priority 2003, published 2004), which cites them from elsewhere.

The data set relates to rat model of cardiac hypertrophy and dysfunction.

For `COc1nccc(-c2c(-c3ccc(F)cc3)ncn2[C@H]2CC[C@H](O)CC2)n1` [trans-1-(4-hydroxycyclohexyl)-4-(4-fluorophenylmethoxypyridimidin-4-yl)imidazole], the hypertensive end-organ damage result is “protected against”, the “plasma tumor necrosis factor (TNF-α)” value is reported as “reduced” and the survival entry was “improved”.
